# Legend:
# Bacillus subtilis [1] = assay: Antibacterial activity against Bacillus subtilis at 50 ug/mL; type: functional; conditions: read-out: IZ
# Escherichia coli [2] = assay: Antibacterial activity against Escherichia coli at 50 ug/mL; type: functional; conditions: read-out: IZ
# Fusarium oxysporum [3] = assay: Antifungal activity against Fusarium oxysporum at 100 ug/mL; type: functional; conditions: read-out: IZ
# Fusarium oxysporum [4] = assay: Antifungal activity against Fusarium oxysporum at 50 ug/mL; type: functional; conditions: read-out: IZ
# Salmonella typhi [5] = assay: Antibacterial activity against Salmonella typhi at 100 ug/mL; conditions: read-out: IZ
# Escherichia coli [6] = assay: Antibacterial activity against Escherichia coli at 100 ug/mL; type: functional; conditions: read-out: IZ
# Penicillium citrinum [7] = assay: Antifungal activity against Penicillium citrinum at 50 ug/mL; type: functional; conditions: read-out: IZ
# Penicillium citrinum [8] = assay: Antifungal activity against Penicillium citrinum; type: functional
# Aspergillus flavus [9] = assay: Antifungal activity against Aspergillus flavus at 100 ug/mL; type: functional; conditions: read-out: IZ
# Fusarium oxysporum [10] = assay: Antifungal activity against Fusarium oxysporum; type: functional
# Salmonella typhi [11] = assay: Antibacterial activity against Salmonella typhi
# Bacillus subtilis [12] = assay: Antibacterial activity against Bacillus subtilis at 100 ug/mL; type: functional; conditions: read-out: IZ
# Bacillus subtilis [13] = assay: Antibacterial activity against Bacillus subtilis; type: functional
# Aspergillus flavus [14] = assay: Antifungal activity against Aspergillus flavus at 50 ug/mL; type: functional; conditions: read-out: IZ
# Aspergillus flavus [15] = assay: Antifungal activity against Aspergillus flavus; type: functional
# Penicillium citrinum [16] = assay: Antifungal activity against Penicillium citrinum at 100 ug/mL; type: functional; conditions: read-out: IZ
# Salmonella typhi [17] = assay: Antibacterial activity against Salmonella typhi at 50 ug/mL; conditions: read-out: IZ
# Escherichia coli [18] = assay: Antibacterial activity against Escherichia coli; type: functional
MIC (Penicillium citrinum [8]) [µg/mL],MIC (Fusarium oxysporum [10]) [µg/mL],MIC (Salmonella typhi [11]) [µg/mL],MIC (Bacillus subtilis [13]) [µg/mL],MIC (Aspergillus flavus [15]) [µg/mL],MIC (Escherichia coli [18]) [µg/mL],SMILES,zone of inhibition at 50 µg/mL (Bacillus subtilis [1]) [mm],zone of inhibition at 50 µg/mL (Escherichia coli [2]) [mm],zone of inhibition at 100 µg/mL (Fusarium oxysporum [3]) [mm],zone of inhibition at 50 µg/mL (Fusarium oxysporum [4]) [mm],zone of inhibition at 100 µg/mL (Salmonella typhi [5]) [mm],zone of inhibition at 100 µg/mL (Escherichia coli [6]) [mm],zone of inhibition at 50 µg/mL (Penicillium citrinum [7]) [mm],zone of inhibition at 100 µg/mL (Aspergillus flavus [9]) [mm],zone of inhibition at 100 µg/mL (Bacillus subtilis [12]) [mm],zone of inhibition at 50 µg/mL (Aspergillus flavus [14]) [mm],zone of inhibition at 100 µg/mL (Penicillium citrinum [16]) [mm],zone of inhibition at 50 µg/mL (Salmonella typhi [17]) [mm]
40,30,38,45,34,35,CCOC(=O)Cn1ncc2cc([N+](=O)[O-])ccc21,3,5,9,6.5,7,8,4,8,5,5.8,6,4
38,28,36,43,32,32,NNC(=O)Cn1ncc2cc([N+](=O)[O-])ccc21,5,7,10.5,8.3,8,10,6,10,7,7,8.9,6
30,17,22,30,20,22,O=C(Cn1ncc2cc([N+](=O)[O-])ccc21)N/N=C/c1ccccc1,11.5,14,17.4,15,16,16.4,11.5,16.7,14.8,13.6,15.5,12.7
28,15,20,25,19,20,O=C(Cn1ncc2cc([N+](=O)[O-])ccc21)N/N=C/c1ccccc1O,12.8,15.4,18.5,16.2,17.5,18,12,18,16,14.9,16.8,13.8
22,13,17,20,17,16,O=C(Cn1ncc2cc([N+](=O)[O-])ccc21)N/N=C/c1ccccc1Cl,16,18.2,22,20.1,21,21,15.8,22,19.4,19,20.5,16.9
20,13,17,18,17,17,O=C(Cn1ncc2cc([N+](=O)[O-])ccc21)N/N=C/c1ccc(Cl)cc1,16.8,19,22.9,20.8,21.7,21.9,16.8,22.7,20.1,20,21.4,18
28,15,18,22,19,18,O=C(Cn1ncc2cc([N+](=O)[O-])ccc21)N/N=C/c1ccccc1Br,14,16.8,19.8,17.8,19,19.4,13.3,19.4,17.4,16.4,18,15
25,15,18,21,18,18,O=C(Cn1ncc2cc([N+](=O)[O-])ccc21)N/N=C/c1cccc(Br)c1,15.1,17.4,20.7,18.8,20,20.1,14.5,20.9,18.3,17.8,19,15.9
20,11,15,17,14,15,O=C(Cn1ncc2cc([N+](=O)[O-])ccc21)N/N=C/c1ccccc1[N+](=O)[O-],18,20,24.2,22,22.8,22.8,18,24,21,21.4,22.7,19
18,11,15,16,13,15,O=C(Cn1ncc2cc([N+](=O)[O-])ccc21)N/N=C/c1cccc([N+](=O)[O-])c1,18.7,20.9,25.4,22.9,23.6,23.5,19,24.9,21.9,22.5,23.8,20
35,20,30,38,23,27,COc1ccccc1/C=N/NC(=O)Cn1ncc2cc([N+](=O)[O-])ccc21,9,11.5,15.2,12.6,13.5,14,9.1,14,12.8,11,12.8,9.8
32,18,25,38,22,25,COc1ccc(/C=N/NC(=O)Cn2ncc3cc([N+](=O)[O-])ccc32)cc1,10,12.6,16.2,13.9,14.8,15,10,15.1,13.9,12.2,14,11
38,25,34,42,30,31,Cc1ccc(/C=N/NC(=O)Cn2ncc3cc([N+](=O)[O-])ccc32)cc1,6,9,12.6,10.8,10,11,7.1,11,9,8,10,7
11,6,–,–,9,–,COC1=CC(=O)C[C@@H](C)[C@]12Oc1c(Cl)c(OC)cc(OC)c1C2=O [GRISEOFULVIN],–,–,32,28,–,–,25,30,–,27,28,–

SMILES,MIC (Penicillium citrinum [8]) [µg/mL],MIC (Fusarium oxysporum [10]) [µg/mL],MIC (Salmonella typhi [11]) [µg/mL],MIC (Bacillus subtilis [13]) [µg/mL],MIC (Aspergillus flavus [15]) [µg/mL],MIC (Escherichia coli [18]) [µg/mL],zone of inhibition at 50 µg/mL (Bacillus subtilis [1]) [mm],zone of inhibition at 50 µg/mL (Escherichia coli [2]) [mm],zone of inhibition at 100 µg/mL (Fusarium oxysporum [3]) [mm],zone of inhibition at 50 µg/mL (Fusarium oxysporum [4]) [mm],zone of inhibition at 100 µg/mL (Salmonella typhi [5]) [mm],zone of inhibition at 100 µg/mL (Escherichia coli [6]) [mm],zone of inhibition at 50 µg/mL (Penicillium citrinum [7]) [mm],zone of inhibition at 100 µg/mL (Aspergillus flavus [9]) [mm],zone of inhibition at 100 µg/mL (Bacillus subtilis [12]) [mm],zone of inhibition at 50 µg/mL (Aspergillus flavus [14]) [mm],zone of inhibition at 100 µg/mL (Penicillium citrinum [16]) [mm],zone of inhibition at 50 µg/mL (Salmonella typhi [17]) [mm]
CN[C@@H]1[C@H](O[C@H]2[C@H](O[C@H]3[C@H](O)[C@@H](O)[C@H](N=C(N)N)[C@@H](O)[C@@H]3N=C(N)N)O[C@@H](C)[C@]2(O)C=O)O[C@@H](CO)[C@H](O)[C@H]1O [STREPTOMYCIN],–,–,10,12,–,8,23,26,–,–,28,30,–,–,27,–,–,25

# Reference: ChEMBL document CHEMBL1240428, “Conventional and microwave assisted synthesis of some new N-[(4-oxo-2-substituted aryl -1, 3-thiazolidine)-acetamidyl]-5-nitroindazoles and its antimicrobial activity” (2010)
